{"source": "PubChem BioAssay AID1552", "about": "(Sanford-Burnham Center for Chemical Genomics, 2009)", "note": "The source made the active and inactive calls. No rule for the calls is given here.", "data": [{"biological_target": "Ubiquitin-conjugating enzyme E2 N (Homo sapiens) (UniProt P61088)", "sequence (P61088 whole entry, looked up)": "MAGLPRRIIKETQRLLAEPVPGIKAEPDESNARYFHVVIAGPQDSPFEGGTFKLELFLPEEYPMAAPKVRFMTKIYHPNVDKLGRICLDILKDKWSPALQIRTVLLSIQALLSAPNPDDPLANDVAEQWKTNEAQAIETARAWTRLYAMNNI", "assay": "UBE2N binders by NMR, biophysical, purified protein (AID 1552)", "settings": "NMR binding to purified UBE2N", "values": [{"molecule": "O=C(O)C1=C[C@@H](O)[C@@H](O)[C@H](O)C1", "Kd": "> 4 mM (inactive)"}, {"molecule": "CC(=O)NCC1OCCc2ccccc21", "note": "(stereo not drawn)", "Kd": "> 4 mM (inactive)"}, {"molecule": "O=CN1CCN(C(=O)c2ccccc2Cl)CC1", "Kd": "> 4 mM (inactive)"}, {"molecule": "CC(=O)c1c(C)nn(CC(=O)O)c1C", "Kd": "> 4 mM (inactive)"}, {"molecule": "Cc1occc1C(=O)Nc1cc(C(C)(C)C)on1", "Kd": "> 4 mM (inactive)"}, {"molecule": "O=C1CN(C(=O)CN2CCOCC2)c2ccccc2N1", "Kd": "> 4 mM (inactive)"}, {"molecule": "CC(=O)Nc1ccc(C(=O)NC2=NCCS2)cc1", "Kd": "> 4 mM (inactive)"}, {"molecule": "O=C(c1ccccc1)c1ccccc1C(=O)N1CCCC1", "Kd": "> 4 mM (inactive)"}, {"molecule": "Nc1c(F)c(F)nc(F)c1F", "Kd": "> 4 mM (inactive)"}, {"molecule": "O=C1CC(NCc2ccco2)C(=O)NN1", "note": "(stereo not drawn)", "Kd": "> 4 mM (inactive)"}, {"molecule": "Nc1nc(N)nc(N2C(=O)c3ccccc3C2=O)n1", "Kd": "> 4 mM (inactive)"}, {"molecule": "Nc1ccc(S(=O)(=O)Nc2nccs2)cc1", "Kd": "> 4 mM (inactive)"}, {"molecule": "Nc1cc(N)nc(SCc2ccccc2)n1", "Kd": "> 4 mM (inactive)"}, {"molecule": "C/C=C(/C)C(=O)O[C@@H]1[C@H](OC(C)=O)[C@@]2(CO)C(CC1(C)C)C1=CCC3[C@@]4(C)CC[C@H](O[C@@H]5O[C@H](C(=O)O)[C@@H](O[C@@H]6O[C@H](CO)[C@@H](O)[C@H](O)[C@H]6O)[C@H](O)[C@H]5O[C@@H]5O[C@H](CO)[C@@H](O)[C@H](O)[C@H]5O)[C@](C)(CO)C4CC[C@@]3(C)[C@]1(C)C[C@H]2O", "note": "(stereo partly drawn)", "Kd": "> 4 mM (inactive)"}, {"molecule": "Cc1ccccc1NC(=O)CC1NCCNC1=O", "note": "(stereo not drawn)", "Kd": "> 4 mM (inactive)"}, {"molecule": "COc1ccc([C@H]2Oc3c(I)c(OC)cc(OC)c3C[C@@H]2O)cc1OC", "Kd": "> 4 mM (inactive)"}, {"molecule": "NCCCCN", "Kd": "> 4 mM (inactive)"}, {"molecule": "Nc1ccc2c(c1)OCCO2", "Kd": "> 4 mM (inactive)"}, {"molecule": "NC(=O)c1ccccc1NC(=O)c1cccnc1", "Kd": "> 4 mM (inactive)"}, {"molecule": "C=C[C@](C)(O)CCC=C(C)C", "Kd": "> 4 mM (inactive)"}, {"molecule": "Cc1cc(C)cc(C(=O)N2CCC(C(N)=O)CC2)c1", "Kd": "> 4 mM (inactive)"}, {"molecule": "NC(CC(=O)O)c1ccccc1", "note": "(stereo not drawn)", "Kd": "> 4 mM (inactive)"}, {"molecule": "O=C1NCCCC1C(=O)N1CCCCC1", "note": "(stereo not drawn)", "Kd": "> 4 mM (inactive)"}, {"molecule": "COc1ccc2[nH]cc(CCN(C)C)c2c1", "Kd": "> 4 mM (inactive)"}, {"molecule": "Cc1cc(C(=O)N2CCN(c3ncccn3)CC2)cs1", "Kd": "> 4 mM (inactive)"}, {"molecule": "O=C1CCC(=O)N1CN1CCOCC1", "Kd": "> 4 mM (inactive)"}, {"molecule": "O=c1c2ccccc2oc2ccc(O)cc12", "Kd": "> 4 mM (inactive)"}, {"molecule": "Nc1ccc(C2SCCS2)cc1", "Kd": "> 4 mM (inactive)"}, {"molecule": "O=C(NCCO)c1cc2ccccc2cc1O", "Kd": "> 4 mM (inactive)"}, {"molecule": "NCC1COc2ccccc2O1", "note": "(stereo not drawn)", "Kd": "> 4 mM (inactive)"}, {"molecule": "CC(=O)/C=C\\[C@@H]1[C@@]2(C)CCCC(C)(C)C2CC[C@@]1(C)O", "note": "(stereo partly drawn)", "Kd": "> 4 mM (inactive)"}, {"molecule": "CC(C)c1nnc(N)s1", "Kd": "> 4 mM (inactive)"}, {"molecule": "NC(=O)Cn1cnc2c(cnn2-c2ccccc2)c1=O", "Kd": "> 4 mM (inactive)"}, {"molecule": "Cc1ccc(N2C(=O)CC(=O)NC2=O)cc1", "Kd": "> 4 mM (inactive)"}, {"molecule": "O=c1cc(O)n(-c2ccc(F)cc2)c(=S)[nH]1", "Kd": "> 4 mM (inactive)"}, {"molecule": "O=C(N1CCOCC1)N1CCN(c2ccccn2)CC1", "Kd": "> 4 mM (inactive)"}, {"molecule": "C[C@]12CC(=O)C3C(CC[C@@H]4C[C@H](O)CC[C@]34C)C1CC[C@]2(O)C(=O)CO", "note": "(stereo partly drawn)", "Kd": "> 4 mM (inactive)"}, {"molecule": "COc1c(C(C)C)oc2cc3oc(=O)ccc3cc12", "Kd": "> 4 mM (inactive)"}, {"molecule": "O=C(c1ccc2c(c1)OCO2)N1CCC2(CC1)OCCO2", "Kd": "> 4 mM (inactive)"}, {"molecule": "Nc1ccc(S(=O)(=O)N2CCOCC2)cc1", "Kd": "> 4 mM (inactive)"}, {"molecule": "CN(C)C(=O)Oc1cccc(-c2nnco2)c1", "Kd": "> 4 mM (inactive)"}, {"molecule": "O=C(O)CSc1nc2ccccc2c(=O)[nH]1", "Kd": "> 4 mM (inactive)"}, {"molecule": "Cn1c(C(=O)O)ccc1S(N)(=O)=O", "Kd": "> 4 mM (inactive)"}, {"molecule": "Cc1ccc(S(C)(=O)=O)s1", "Kd": "> 4 mM (inactive)"}, {"molecule": "OCc1ccccc1CN1CCOCC1", "Kd": "> 4 mM (inactive)"}, {"molecule": "Clc1ncc2[nH]cnc2n1", "Kd": "> 4 mM (inactive)"}, {"molecule": "CN1CCC(O)N1C(=O)c1ccccc1O", "note": "(stereo not drawn)", "Kd": "> 4 mM (inactive)"}, {"molecule": "CCCc1cc2c(c(NC(C)=O)n1)c(=O)oc1ccccc12", "Kd": "> 4 mM (inactive)"}, {"molecule": "Cc1sc2nc(SCC(=O)N(C)C)[nH]c(=O)c2c1C", "Kd": "> 4 mM (inactive)"}, {"molecule": "CC1=C(C(N)=O)C(c2cccs2)C(C(N)=O)=C(C)N1", "Kd": "> 4 mM (inactive)"}, {"molecule": "CN(C)c1ccc(NC(=O)CC(C(=O)O)N(C)C)cc1", "note": "(stereo not drawn)", "Kd": "> 4 mM (inactive)"}, {"molecule": "CN(C)CCNC(CC(=O)Nc1ccccc1)C(=O)O", "note": "(stereo not drawn)", "Kd": "> 4 mM (inactive)"}, {"molecule": "Cc1cc2cc(N)ccc2[nH]1", "Kd": "> 4 mM (inactive)"}, {"molecule": "Cc1ncc(C(=O)O)c(-c2ccccc2)n1", "Kd": "> 4 mM (inactive)"}, {"molecule": "C=C1C(=O)O[C@@H]2C[C@@]3(C)CCC[C@H](C)C3=C[C@H]12", "Kd": "> 4 mM (inactive)"}, {"molecule": "Cn1c(O)c(/C=C2\\C=CC=N2)c(=O)[nH]c1=O", "Kd": "> 4 mM (inactive)"}, {"molecule": "CC(=O)NN1C(=O)/C(=C\\c2ccc(O)cc2)SC1=S", "Kd": "> 4 mM (inactive)"}, {"molecule": "CN(C)CC(O)C1CCOC(C)(C)C1", "note": "(stereo not drawn)", "Kd": "> 4 mM (inactive)"}, {"molecule": "Cc1cc(C(=O)N2CCN(c3ncccn3)CC2)c(C)o1", "Kd": "> 4 mM (inactive)"}, {"molecule": "C[C@@H]1O[C@@H](O[C@H]2CC[C@]3(C=O)C4CC[C@]5(C)[C@@H](C6=CC(=O)OC6)CC[C@]5(O)C4CC[C@]3(O)C2)[C@H](O)[C@H](O)[C@H]1O", "note": "(stereo partly drawn)", "Kd": "> 4 mM (inactive)"}, {"molecule": "CCCSc1nnc2[nH]c(=O)cc(N)n12", "Kd": "> 4 mM (inactive)"}, {"molecule": "O=C1NC(=Nc2ccccc2)S/C1=C/c1cccnc1", "Kd": "> 4 mM (inactive)"}, {"molecule": "CC(=O)O[C@@H]1CC2C(C)(C)C(=O)C3OC3[C@]2(C)C2CC[C@@]3(C)[C@H](c4ccoc4)OC(=O)C4OC43[C@@]21C", "note": "(stereo partly drawn)", "Kd": "> 4 mM (inactive)"}, {"molecule": "O=C(O)c1ccccc1C(=O)NCC1CCCO1", "note": "(stereo not drawn)", "Kd": "> 4 mM (inactive)"}, {"molecule": "O=C(c1ccco1)N1C(=O)c2cccc3cccc1c23", "Kd": "> 4 mM (inactive)"}, {"molecule": "COc1c2c(cc3c1OCO3)C13C=C[C@H](OC)CC1N(C2)CC3O", "note": "(stereo partly drawn)", "Kd": "> 4 mM (inactive)"}, {"molecule": "O=C(O)/C=C1\\NC(=O)c2ccccc21", "Kd": "> 4 mM (inactive)"}, {"molecule": "Oc1cnc2ccccc2c1CN1CCOCC1", "Kd": "> 4 mM (inactive)"}, {"molecule": "COC(=O)/C(C)=C\\CC12OC(C)(C)C3CC(C=C4C(=O)c5c(OC)c6c(c(CC=C(C)C)c5OC431)OC(C)(CCC=C(C)C)C=C6)C2=O", "note": "(stereo not drawn)", "Kd": "> 4 mM (inactive)"}, {"molecule": "NC(=O)Cn1cnc(-c2ccc(F)cc2)c1", "Kd": "> 4 mM (inactive)"}, {"molecule": "Cc1occc1C(=O)Nc1nnc(C(F)(F)F)s1", "Kd": "> 4 mM (inactive)"}, {"molecule": "O=C(O)c1ncoc1-c1ccccc1", "Kd": "> 4 mM (inactive)"}, {"molecule": "Cc1occc(=O)c1O", "Kd": "> 4 mM (inactive)"}, {"molecule": "CN1C(=O)/C(=C/c2ccc(O)cc2O)SC1=S", "Kd": "> 4 mM (inactive)"}, {"molecule": "Cc1occc1C(=O)Nc1nccs1", "Kd": "> 4 mM (inactive)"}, {"molecule": "O=C1CSC(=S)N1N1C(=O)C2C3C=CC(C3)C2C1=O", "note": "(stereo not drawn)", "Kd": "> 4 mM (inactive)"}, {"molecule": "Cc1nc(-c2ccc(C(=O)O)s2)cs1", "Kd": "> 4 mM (inactive)"}, {"molecule": "CN1CCC(N(C)Cc2cccnc2)CC1", "Kd": "> 4 mM (inactive)"}, {"molecule": "CC(O)(C(=O)O)c1ccccc1", "note": "(stereo not drawn)", "Kd": "> 4 mM (inactive)"}, {"molecule": "Cc1cc(C)n(S(=O)(=O)c2cc(C)c(C)cc2C)n1", "Kd": "> 4 mM (inactive)"}, {"molecule": "O=C1CCCC(=O)N1Cc1ccco1", "Kd": "> 4 mM (inactive)"}, {"molecule": "OCCNC(=S)Nc1ccc(F)cc1", "Kd": "> 4 mM (inactive)"}, {"molecule": "Cc1ccc(NC(=O)N2CCC(C(N)=O)CC2)cc1", "Kd": "> 4 mM (inactive)"}]}]}
